This note sets out measurements from US10577363B2, “Substituted piperidine compounds” (EPIZYME, INC., priority 2014, dated 2020).

Test [1] deals with T1, SMYD3 (Homo sapiens (Human), UniProt Q9H7B4). Kind of test: SMYD3 biochemical assay (SPA, 3H-SAM methylation of MEKK2 protein substrate). Particulars: read-out: SMYD3 Biochem IC50 (μM)*. Summed up:
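SPA methyltransferase format: tag-cleaved human SMYD3, insect-cell GST-MEKK2 protein substrate, 3H-SAM donor, 30 min RT enzyme–compound preincubation, 100 uM cold SAM quench.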

Test [2] deals with T1, SMYD3. The test is described as follows: SMYD3 cell assay (Trimethyl-MEKK2 In-Cell Western in 293T/17 cells). The class given is cell-based. Particulars: 293T/17 cells; read-out: SMYD3 Cell IC50 (μM)*. Summed up:
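In-Cell Western readout: methanol-fixed cells stained for trimethyl-MEKK2 and flag tag, ratio per well normalized to DMSO and background controls.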

T1 sequence (Q9H7B4 whole entry): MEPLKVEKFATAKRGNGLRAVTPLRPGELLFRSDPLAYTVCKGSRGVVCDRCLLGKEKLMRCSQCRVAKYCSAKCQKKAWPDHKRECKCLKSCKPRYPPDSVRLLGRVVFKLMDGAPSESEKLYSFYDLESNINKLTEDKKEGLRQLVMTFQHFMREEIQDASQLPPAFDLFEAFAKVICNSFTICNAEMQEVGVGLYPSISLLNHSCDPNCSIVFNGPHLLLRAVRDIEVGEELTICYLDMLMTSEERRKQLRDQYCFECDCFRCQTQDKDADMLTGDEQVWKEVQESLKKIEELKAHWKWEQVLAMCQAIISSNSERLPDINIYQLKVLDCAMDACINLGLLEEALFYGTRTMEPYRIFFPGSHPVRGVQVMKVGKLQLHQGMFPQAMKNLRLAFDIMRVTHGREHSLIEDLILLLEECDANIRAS

For `O=C(N[C@H]1C[C@H]2CC[C@@H](C1)N2S(=O)(=O)CCN1CCOCC1)c1cc(C2CC2)on1` [compound 441, 5-cyclopropyl-N-((1R,3r,5S)-8-((2-morpholinoethyl)sulfonyl)-8-azabicyclo[3.2.1]octan-3-yl)isoxazole-3-carboxamide], the IC50 in test [1] was determined as 1.61 µM; in test [2], 3.67 µM.

On to `O=C(NC1CC2CCCC(C1)N2S(=O)(=O)CCN1CCCC1)c1cc(C2CC2)on1` (stereo not shown) [compound 442, 5-cyclopropyl-N-(9-((2-(pyrrolidin-1-yl)ethyl)sulfonyl)-9-azabicyclo[3.3.1]nonan-3-yl)isoxazole-3-carboxamide], for which the values for the IC50 in test [1] and in test [2] were 1.11 µM and 4.55 µM, respectively.

Consider `O=C(NC1CC2CCCC(C1)N2S(=O)(=O)CCN1CCOCC1)c1cc(C2CC2)on1` (stereo not shown) [compound 443, 5-cyclopropyl-N-(9-((2-morpholinoethyl)sulfonyl)-9-azabicyclo[3.3.1]nonan-3-yl)isoxazole-3-carboxamide], for which the half-maximal inhibitory concentration (IC50) in test [1] and in test [2] was over 10 µM each time.

Regarding `CNCCCS(=O)(=O)N1CC[C@H](NC(=O)c2cc(C3CC3)on2)C[C@@H]1C` [compound 444, 5-cyclopropyl-N-((2S,4S)-2-methyl-1-((3-(methylamino)propyl)sulfonyl)piperidin-4-yl)isoxazole-3-carboxamide], the half-maximal inhibitory concentration (IC50) came out at 0.0131 µM in test [1] and 0.181 µM in test [2].

Consider `CNc1ccc(S(=O)(=O)N2CC[C@H](NC(=O)c3cc(C4CC4)on3)C[C@@H]2C)cn1` [compound 446, 5-cyclopropyl-N-((2S,4S)-2-methyl-1-((6-(methylamino)pyridin-3-yl)sulfonyl)piperidin-4-yl)isoxazole-3-carboxamide], for which the IC50 is 0.89 µM in test [1] and 2.25 µM in test [2].

For `CNc1ccc(S(=O)(=O)N2CC[C@@H](NC(=O)c3cc(C4CC4)on3)C[C@H]2C)cn1` [compound 449, 5-cyclopropyl-N-((2R,4R)-2-methyl-1-((6-(methylamino)pyridin-3-yl)sulfonyl)piperidin-4-yl)isoxazole-3-carboxamide], the IC50 in test [1] and in test [2] was over 10 µM throughout.

As for `CC(C)CNc1ccc(S(=O)(=O)N2CC[C@H](NC(=O)c3cc(C4CC4)on3)C[C@@H]2C)cn1` [compound 450, 5-cyclopropyl-N-((2S,4S)-1-((6-(isobutylamino)pyridin-3-yl)sulfonyl)-2-methylpiperidin-4-yl)isoxazole-3-carboxamide], the values for the IC50 in test [1] and in test [2] were 1.1 µM and 3.48 µM, respectively.

Turning to `CC(C)CNc1ccc(S(=O)(=O)N2CC[C@@H](NC(=O)c3cc(C4CC4)on3)C[C@H]2C)cn1` [compound 453, 5-cyclopropyl-N-((2R,4R)-1-((6-(isobutylamino)pyridin-3-yl)sulfonyl)-2-methylpiperidin-4-yl)isoxazole-3-carboxamide], the half-inhibitory concentration (IC50) in test [1] is 7.19 µM; in test [2] it was over 10 µM.

As to `CC(C)CN(C)c1ccc(S(=O)(=O)N2CC[C@@H](NC(=O)c3cc(C4CC4)on3)C[C@H]2C)cn1` [compound 454, 5-cyclopropyl-N-((2R,4R)-1-((6-(isobutyl(methyl)amino)pyridin-3-yl)sulfonyl)-2-methylpiperidin-4-yl)isoxazole-3-carboxamide], the IC50 in test [1] and in test [2] was over 10 µM throughout.

On to `COCCN(C)c1ccc(S(=O)(=O)N2CC[C@@H](NC(=O)c3cc(C4CC4)on3)C[C@H]2C)cn1` [compound 455, 5-cyclopropyl-N-((2R,4R)-1-((6-((2-methoxyethyl)(methyl)amino)pyridin-3-yl)sulfonyl)-2-methylpiperidin-4-yl)isoxazole-3-carboxamide], for which the IC50 in test [1] and in test [2] was over 10 µM throughout.

Turning to `COCCNc1ccc(S(=O)(=O)N2CC[C@@H](NC(=O)c3cc(C4CC4)on3)C[C@H]2C)cn1` [compound 457, 5-cyclopropyl-N-((2R,4R)-1-((6-((2-methoxyethyl)amino)pyridin-3-yl)sulfonyl)-2-methylpiperidin-4-yl)isoxazole-3-carboxamide], the IC50 in test [1] and in test [2] was over 10 µM in each case.

As for `C[C@@H]1C[C@H](NC(=O)c2cc(C3CC3)on2)CCN1S(=O)(=O)c1ccc(NCCN2CCOCC2)nc1` [compound 459, 5-cyclopropyl-N-((2R,4R)-2-methyl-1-((6-((2-morpholinoethyl)amino)pyridin-3-yl)sulfonyl)piperidin-4-yl)isoxazole-3-carboxamide], the figures for the IC50 in test [1] and in test [2] were 2.36 µM and 4.58 µM, respectively.

With `C[C@@H]1C[C@H](NC(=O)c2cc(C3CC3)on2)CCN1S(=O)(=O)c1ccc(N(C)CCN2CCOCC2)nc1` [compound 460, 5-cyclopropyl-N-((2R,4R)-2-methyl-1-((6-(methyl(2-morpholinoethyl)amino)pyridin-3-yl)sulfonyl)piperidin-4-yl)isoxazole-3-carboxamide], the IC50 in test [1] and in test [2] was over 10 µM throughout.

As for `C[C@H]1C[C@@H](NC(=O)c2cc(C3CC3)on2)CCN1S(=O)(=O)c1ccc(N(C)CCN)nc1` [compound 461, N-((2S,4S)-1-((6-((2-aminoethyl)(methyl)amino)pyridin-3-yl)sulfonyl)-2-methylpiperidin-4-yl)-5-cyclopropylisoxazole-3-carboxamide], the IC50 in test [1] is 0.0142 µM; in test [2], 3.85 µM.

With `C[C@@H]1C[C@H](NC(=O)c2cc(C3CC3)on2)CCN1S(=O)(=O)c1ccc(N(C)CCN)nc1` [compound 463, N-((2R,4R)-1-((6-((2-aminoethyl)(methyl)amino)pyridin-3-yl)sulfonyl)-2-methylpiperidin-4-yl)-5-cyclopropylisoxazole-3-carboxamide], the IC50 in test [1] came out at 0.163 µM; in test [2], 4.33 µM.

On to `C[C@@H]1C[C@H](NC(=O)c2cc(C3CC3)on2)CCN1S(=O)(=O)c1ccc(NCCN)nc1` [compound 464, N-((2R,4R)-1-((6-((2-aminoethyl)amino)pyridin-3-yl)sulfonyl)-2-methylpiperidin-4-yl)-5-cyclopropylisoxazole-3-carboxamide], for which the IC50 in test [1] was determined as 0.0897 µM; in test [2] it was 3.3 µM.

`CC(C)CNc1ccc(S(=O)(=O)N2C3CCCC2CC(NC(=O)c2cc(C4CC4)on2)C3)cn1` (stereo not shown) [compound 465, 5-cyclopropyl-N-(9-((6-(isobutylamino)pyridin-3-yl)sulfonyl)-9-azabicyclo[3.3.1]nonan-3-yl)isoxazole-3-carboxamide]: the results for the half-inhibitory concentration (IC50) in test [1] and in test [2] were 3.12 µM and 6.16 µM, respectively.

Take `CNc1ncccc1S(=O)(=O)N1CC[C@H](NC(=O)c2cc(C3CC3)on2)C[C@@H]1C` [compound 467, 5-cyclopropyl-N-((2S,4S)-2-methyl-1-((2-(methylamino)pyridin-3-yl)sulfonyl)piperidin-4-yl)isoxazole-3-carboxamide]: the figures for the IC50 in test [1] and in test [2] were 3.74 µM and 5.76 µM, respectively.

As to `C[C@H]1C[C@@H](NC(=O)c2cc(C3CC3)on2)CCN1S(=O)(=O)c1cccnc1NCCN` [compound 475, N-((2S,4S)-1-((2-((2-aminoethyl)amino)pyridin-3-yl)sulfonyl)-2-methylpiperidin-4-yl)-5-cyclopropylisoxazole-3-carboxamide], the IC50 came out at 0.0865 µM in test [1] and 1.34 µM in test [2].

Turning to `C[C@H]1C[C@@H](NC(=O)c2cc(C3CC3)on2)CCN1S(=O)(=O)c1cccc(C(N)=O)c1` [compound 477, N-((2S,4S)-1-((3-carbamoylphenyl)sulfonyl)-2-methylpiperidin-4-yl)-5-cyclopropylisoxazole-3-carboxamide], the IC50 is 0.932 µM in test [1] and 3.26 µM in test [2].

`C[C@H]1C[C@@H](NC(=O)c2cc(C3CC3)on2)CCN1C(=O)N1CCN(Cc2ccccc2)CC1` [compound 478, N-((2S,4S)-1-(4-benzylpiperazine-1-carbonyl)-2-methylpiperidin-4-yl)-5-cyclopropylisoxazole-3-carboxamide]: the IC50 in test [1] and in test [2] was over 10 µM in each case.

For the compound `NCCCS(=O)(=O)N1CCC(NC(=O)c2cc(C3CC3)on2)C[C@@H]1c1ccccc1` (stereo partly drawn) [compound 480, N-((2R)-1-((3-aminopropyl)sulfonyl)-2-phenylpiperidin-4-yl)-5-cyclopropylisoxazole-3-carboxamide], the values for the IC50 in test [1] and in test [2] were 0.0658 µM and 2.24 µM, respectively.

Take `NCCCS(=O)(=O)N1CCC(NC(=O)c2cc(C3CC3)on2)C[C@H]1c1ccccc1` (stereo partly drawn) [compound 481, N-((2S)-1-((3-aminopropyl)sulfonyl)-2-phenylpiperidin-4-yl)-5-cyclopropylisoxazole-3-carboxamide]: the IC50 in test [1] was 0.479 µM; in test [2], 4.47 µM.

Turning to `C[C@H]1C[C@@H](NC(=O)c2cc(C3CC3)on2)CCN1S(=O)(=O)C1CCOC1` (stereo partly drawn) [compound 482, 5-cyclopropyl-N-((2S,4S)-2-methyl-1-((tetrahydrofuran-3-yl)sulfonyl)piperidin-4-yl)isoxazole-3-carboxamide], the IC50 in test [1] was determined as 0.928 µM; in test [2] it was 2.83 µM.

Consider `C[C@H]1C[C@@H](NC(=O)c2cc(C3CC3)on2)CCN1S(=O)(=O)c1c[nH]cn1` [compound 483, N-((2S,4S)-1-((1H-imidazol-4-yl)sulfonyl)-2-methylpiperidin-4-yl)-5-cyclopropylisoxazole-3-carboxamide], for which the values for the IC50 in test [1] and in test [2] were 0.533 µM and 2.13 µM, respectively.

As for `NCCCS(=O)(=O)N1[C@@H]2CC[C@H]1C[C@H](NC(=O)c1cc(C3CC3)on1)C2` [compound 484, N-((1R,3s,5S)-8-((3-aminopropyl)sulfonyl)-8-azabicyclo[3.2.1]octan-3-yl)-5-cyclopropylisoxazole-3-carboxamide], the IC50 in test [1] was 0.0792 µM; in test [2], 1.44 µM.

By IC50 is commonly meant the concentration at which inhibition is half-maximal.
